Reference: patent US20210238201A1, “ANTIMICROBIAL COMPOUNDS AND COMPOSITIONS” (AGROFRESH INC., priority 2020, published 2021)
Converted amounts (≈) assume the structure as drawn.

What was measured:
[1] = test system: Penicillium expansum; test: in vitro inhibition assay for volatile antimicrobial compounds (headspace, PDA agar); format: cell-based; conditions: volatile headspace exposure
Method: [The procedure below names another organism; the source lists this organism under the same test.] (§1) 12-well (6.5 ml volume per well) microtiter plates are used for the in vitro inhibition assay for volatile antimicrobial compounds. A 3-ml volume of full-strength Potato Dextrose Agar (PDA) is added to each well. After cooling, 1 μL of 1×10^5 spores per ml Botrytis cinerea (ATCC #204446) spore suspension is spot pipetted to the agar in the center of the well. Whatman #1 filter disks (1.5 cm; Cat. No. 1001-0155) are placed on the underside of a polyethylene PCR plate sealing film. For determination of the minimum inhibitory concentration (MIC), test compounds are diluted in acetone, in duplicate, and 50 μli of the compound solution is added to disks at concentrations that can vary from 0.001 mg/l to 1142.9 mg/l. The acetone is permitted to evaporate for 5 minutes. The headspace around the Botrytis cinerea inoculum is then sealed inside the well by the film with the adhering disk containing the antimicrobial, anti-decay, anti-spoilage, or pathogen control agent. Plates are inverted to prevent any possibility of the chemical from flaking from the disk and falling onto the inoculated agar.

[2] = test system: Botrytis cinerea (ATCC #204446); test: as above; format: cell-based; conditions: volatile headspace exposure, 3 days at 23° C.; for MIC / EC50: Botrytis cinerea, ATCC204446, 72 h; for EC50: growth relative to control
Method: as §1

[3] = test system: Botrytis cinerea (ATCC #204446); test: Grape in vivo analysis, volatile bioassay on inoculated green table grape; design: species or system Botrytis cinerea on green table grape; conditions: for antimicrobial activity against Botrytis cinerea in grape in vivo analysis: stem wound inoculated, 3 days treatment at 21° C. plus 3 days evaluation; for phytotoxicity in grape in vivo analysis: symptoms of phytotoxicity evaluated daily
Method: In order to assess the in vivo activity of volatile antimicrobial compounds, a volatile bioassay is developed using green table grape. Fruit are removed from the rachis, and 16 to 20 fruit are placed inside a 1 dry pint clamshell (Produce Packaging; Product #03231004KZ) with the stem wound facing upwards. The grapes are inoculated by pipetting 20 μL of 1×10^6 spore per ml Botrytis cinerea (ATCC #204446) into the stem wound. The clamshell is placed inside a 2.55 L plastic container (Snapware; Model #1098421). A Whatman #1 filter paper (4.25 cm; Cat. No. 1001-042) is placed on a watchglass, which is then placed on top of the closed clamshell lid. For determination of the MIC, test compounds are diluted in acetone, and 400 μl of the solution is added to disks, in duplicate, in a dose dependent manner (for example 0.4 to 50 mg/liter). The acetone is permitted to evaporate for 5 minutes. The plastic containers are then closed and placed for 3 days at 21° C. Clamshells are then removed from the treatment plastic container and placed into separate larger secondary containers for a further 3 days of evaluation at 21° C. During these 3 days, fruit are evaluated daily for incidence and severity of disease and symptoms of phytotoxicity.

[4] = test system: Escherichia coli (ATCC #25922); test: in vitro inhibition assay for volatile antimicrobial compounds against bacteria (LB agar); format: cell-based; conditions: volatile headspace exposure, 2 days at 23° C.
Method: 12-well (6.5 ml volume per well) microtiter plates are used for the in vitro inhibition assay for volatile antimicrobial compounds. A 3-ml volume of full-strength L^B Agar is added to each well. After cooling, 15 μL of Escherichia coli (ATCC #25922) adjusted to an optical density of 0.02 to 0.035, and further diluted 1/10 is pipetted to the center of the agar. The plate is tilted to distribute bacteria uniformly. Whatman #1 filter disks (1.5 cm; Cat. No. 1001-0155) are placed on the underside of a polyethylene PCR plate sealing film. […] The acetone is permitted to evaporate for 5 minutes. The headspace around the Escherichia coli inoculum is then sealed inside the well by the film with the adhering disk containing the antimicrobial, anti-decay, anti-spoilage, or pathogen control agent. Plates are inverted, placed over the treated disks and sealed to prevent any of the chemical from flaking from the disk and falling onto the inoculated agar. After 2 days of incubation at 23° C., cultures were evaluated for colony growth relative to control.

[5] = test system: Botrytis cinerea (ATCC #204446); test: Strawberry in vivo analysis, volatile bioassay on wound-inoculated strawberry; design: species or system Botrytis cinerea on strawberry; conditions: for phytotoxicity in strawberry in vivo analysis: symptoms of phytotoxicity evaluated daily; for antimicrobial activity against Botrytis cinerea in strawberry in vivo analysis: wound-inoculated, 3 days treatment at 21° C. plus 3 days evaluation
Method: In order to assess the in vivo activity of volatile antimicrobial compounds, a volatile bioassay is developed using strawberry. Fruit (6 to 8) are placed inside a 1 lb clamshell (Packaging Direct Inc.; Product #4341699) with the calyx facing downward. The strawberry fruit are wound-inoculated by pipetting 20 μL of 1×10^6 spore per ml Botrytis cinerea (ATCC #204446) into a wound approximately 5 mm deep and 2.6 mm in width. The clamshell is placed inside a 2.55 L plastic container (Snapware; Model #1098421). A Whatman #1 filter paper (4.25 cm; Cat. No. 1001-042) is placed on a watchglass, which is then placed on top of the closed clamshell lid. For determination of the MIC, test compounds are diluted in acetone, and 400 μl of the solution is added to disks, in duplicate, in a dose dependent manner (for example 0.4 to 50 mg/liter). The acetone is permitted to evaporate for 5 minutes. The plastic containers are then closed and placed for 3 days at 21° C. Clamshells are then removed from the treatment plastic container and placed into separate larger secondary containers for a further 3 days of evaluation at 21° C. During these 3 days, fruit are evaluated daily for incidence and severity of disease and symptoms of phytotoxicity.

[6] = test system: Alternaria alternata; test: in vitro inhibition assay for volatile antimicrobial compounds (headspace, PDA agar); format: cell-based; conditions: volatile headspace exposure
Method: [The procedure below names another organism; the source lists this organism under the same test.] as §1

Compound | EC50 [1] [µg/mL] | MIC [1] [µg/mL] | MIC [2] [µg/mL] | EC50 [2] [µg/mL] | antimicrobial activity against Botrytis cinerea in grape in vivo analysis [3] | phytotoxicity in grape in vivo analysis [3] | antimicrobial activity against Escherichia coli (colony growth relative to control) [4] | phytotoxicity in strawberry in vivo analysis [5] | antimicrobial activity against Botrytis cinerea in strawberry in vivo analysis [5] | EC50 [6] [µg/mL] | MIC [6] [µg/mL] | MIC Botrytis cinerea [2] [µg/mL]
CC(C)(OB1OCc2ccccc21)C(C)(C)OB1OCc2ccccc21 [Compound 3, 1,1′-((2,3-dimethylbutane-2,3-diyl)bis(oxy))bis(1,3-dihydrobenzo[c][1,2]oxaborole)] | 11.1 (≈ 31.7 µM) | 71.4 (≈ 204 µM) | 8.9 (≈ 25.4 µM) | 2.1 (≈ 6 µM) | – | – | – | – | – | – | – | –
c1ccc2c(c1)COB2OCCNCCNCCOB1OCc2ccccc21 [Compound 4, N^1,N^2-bis(2-(benzo[c][1,2]oxaborol-1(3H)-yloxy)ethyl)ethane-1,2-diamine] | 2 (≈ 5.26 µM) | 8.9 (≈ 23.4 µM) | 1.1 (≈ 2.89 µM) | 0.4 (≈ 1.05 µM) | – | – | – | – | – | – | – | –
c1ccc2c(c1)COB2NCCNB1OCc2ccccc21 [Compound 5, N^1,N^2-bis(benzo[c][1,2]oxaborol-1(3H)-yl)ethane-1,2-diamine] | 3.3 (≈ 11.3 µM) | 17.9 (≈ 61.3 µM) | – | – | – | – | – | – | – | – | – | –
c1ccc2c(c1)COB2OB1OCc2ccccc21 [Compound 6, 1,1′-oxybis(1,3-dihydrobenzo[c][1,2]oxaborole)] | 3.1 (≈ 12.4 µM) | 17.9 (≈ 71.6 µM) | 2.2 (≈ 8.8 µM) | 0.8 (≈ 3.2 µM) | – | – | – | – | – | – | – | –
CC(C)(COB1OCc2cc(F)ccc21)COB1OCc2cc(F)ccc21 [Compound 8, 1,1′-((2,2-dimethylpropane-1,3-diyl)bis(oxy))bis(5-fluoro-1,3-dihydrobenzo[c][1,2]oxaborole)] | 0.8 (≈ 2.15 µM) | 2.2 (≈ 5.91 µM) | 0.6 (≈ 1.61 µM) | 0.3 (≈ 0.806 µM) | – | – | – | – | – | – | – | –
CC(C)(OB1OCc2cc(F)ccc21)C(C)(C)OB1OCc2cc(F)ccc21 [Compound 9, 1,1′-((2,3-dimethylbutane-2,3-diyl)bis(oxy))bis(5-fluoro-1,3-dihydrobenzo[c][1,2]oxaborole)] | 0.8 (≈ 2.07 µM) | 4.5 (≈ 11.7 µM) | 1.1 (≈ 2.85 µM) | 0.3 (≈ 0.777 µM) | good antimicrobial activity | no phytotoxicity | good antimicrobial activity | no phytotoxicity | good antimicrobial activity | 0.3 (≈ 0.777 µM) | 2.2 (≈ 5.7 µM) | –
Fc1ccc2c(c1)COB2OCCNCCNCCOB1OCc2cc(F)ccc21 [Compound 10, N^1,N^2-bis(2-((5-fluorobenzo[c][1,2]oxaborol-1(3H)-yl)oxy)ethyl)ethane-1,2-diamine] | 0.9 (≈ 2.16 µM) | 8.9 (≈ 21.4 µM) | 0.6 (≈ 1.44 µM) | 0.2 (≈ 0.481 µM) | – | – | – | – | – | – | – | –
OC(COB1OCc2cc(F)ccc21)COB1OCc2cc(F)ccc21 [Compound 12, 1,3-bis((5-fluorobenzo[c][1,2]oxaborol-1(3H)-yl)oxy)propan-2-ol] | 1.1 (≈ 3.06 µM) | 8.9 (≈ 24.7 µM) | 0.6 (≈ 1.67 µM) | 0.2 (≈ 0.556 µM) | – | – | – | – | – | – | – | –
Fc1ccc2c(c1)COB2OCCCOB1OCc2cc(F)ccc21 [Compound 13, 1,3-bis((5-fluorobenzo[c][1,2]oxaborol-1(3H)-yl)oxy)propane] | 0.8 (≈ 2.33 µM) | 8.9 (≈ 25.9 µM) | 0.3 (≈ 0.872 µM) | 0.1 (≈ 0.291 µM) | good antimicrobial activity | no phytotoxicity | good antimicrobial activity | no phytotoxicity | good antimicrobial activity | – | – | –
Fc1ccc2c(c1)COB2OCc1ccc(COB2OCc3cc(F)ccc32)cc1 [Compound 14, 1,4-bis(((5-fluorobenzo[c][1,2]oxaborol-1(3H)-yl)oxy)methyl)benzene] | 1.7 (≈ 4.19 µM) | 17.9 (≈ 44.1 µM) | 1.1 (≈ 2.71 µM) | 0.4 (≈ 0.985 µM) | – | – | – | – | – | – | – | –
Fc1ccc2c(c1)COB2OCc1cccc(COB2OCc3cc(F)ccc32)c1 [Compound 15, 1,3-bis(((5-fluorobenzo[c][1,2]oxaborol-1(3H)-yl)oxy)methyl)benzene] | 2.5 (≈ 6.16 µM) | 17.9 (≈ 44.1 µM) | 2.2 (≈ 5.42 µM) | 0.7 (≈ 1.72 µM) | – | – | – | – | – | – | – | –
Fc1ccc2c(c1)COB2NCCCNB1OCc2cc(F)ccc21 [Compound 16, N^1,N^3-bis(5-fluorobenzo[c][1,2]oxaborol-1(3H)-yl)propane-1,3-diamine] | 1 (≈ 2.92 µM) | 8.9 (≈ 26 µM) | 1.1 (≈ 3.22 µM) | 0.3 (≈ 0.877 µM) | – | – | – | – | – | – | – | –
Fc1ccc2c(c1)COB2NCCNB1OCc2cc(F)ccc21 [Compound 17, N^1,N^2-bis(5-fluorobenzo[c][1,2]oxaborol-1(3H)-yl)ethane-1,2-diamine] | 1.8 (≈ 5.49 µM) | 17.9 (≈ 54.6 µM) | 1.1 (≈ 3.35 µM) | 0.4 (≈ 1.22 µM) | – | – | – | – | – | – | – | –
Fc1cc2c(cc1F)B(OCCOB1OCc3cc(F)c(F)cc31)OC2 [Compound 18, 1,2-bis((5,6-difluorobenzo[c][1,2]oxaborol-1(3H)-yl)oxy)ethane] | > 35.7 | > 35.7 | 9 (≈ 24.6 µM) | 3 (≈ 8.2 µM) | – | – | – | – | – | – | – | –
Clc1ccc2c(c1)COB2OCCOB1OCc2cc(Cl)ccc21 [Compound 19, 1,2-bis((5-chlorobenzo[c][1,2]oxaborol-1(3H)-yl)oxy)ethane] | – | – | – | – | – | – | – | – | – | – | – | 0
Fc1ccc2c(c1)COB2OB1OCc2cc(F)ccc21 [Compound 20, 1,1′-oxybis(5-fluoro-1,3-dihydrobenzo[c][1,2]oxaborole)] | 0.5 (≈ 1.75 µM) | 4.5 (≈ 15.7 µM) | 0.3 (≈ 1.05 µM) | 0.1 (≈ 0.35 µM) | – | – | – | – | – | – | – | –
